According to US20060223877A1, “Methods of treatment utilizing certain melatonin derivatives” (priority 2005, published 2006):

Legend:
[1] = tested on: subjects fed a high-fat diet; conditions: daily administration, Pruet-Marcassus et al., 2003; cited from earlier work
middle-aged male rats = conditions: cited from earlier work
[2] = tested on: patients with a diagnosis of fibromyalgia; conditions: cited from earlier work
[3] = tested on: patients with a diagnosis of migraine with or without aura; conditions: daily treatment; Peres et al., 2004; cited from earlier work
melatonin receptors = conditions: Mulchahey, et al., 2004; cited from earlier work
humans = conditions: 20 mg to 100 mg per day, Zemlan et al., 2005; cited from earlier work
TBI rats = experiment: traumatic brain injury, controlled cortical impact model; format: in vivo; conditions: 10 mg/kg intraperitoneally, two doses (15 minutes and 24 hours after TBI), Day 7 morphometry, P=0.01, FIG. 3
Description: Subjects were male Sprague-Dawley rats weighing 250-300 g housed in a temperature- and humidity-controlled vivarium on a 12:12 hr light:dark cycle with food and water available ad libitum. Animals were subjected to TBI using controlled cortical impact model. (Sullivan et al. 2000a). Animals were anesthetized and their brain cortex exposed. Employing a pneumatically-controlled impactor rod with a 5 mm diameter beveled tip, one of the cortices was compressed at 3.5 m/sec to a predetermined depth of 1.5 mm, resulting in TBI. The other cortex was not injured and left intact. Following the experimental TBI protocol, the animals were randomly divided into two groups and were either treated with vehicle or 10 mg/kg of β-methyl-6-chloromelatonin intraperitoneally (two doses; first dose 15 minutes after TBI and the second 24 hours later). The animals were allowed to recover for 168 hours (seven days). On Day 7, quantitative morphometric image analysis was employed to assess cortical tissue damage. Quantitative morphometry is considered to be the “gold standard” for assessing neuroprotectant drug efficacy in TBI (Sullivan et al., 1999; Sullivan et al., 2000a; Sullivan et al., 2000b).

[4] = tested on: TNF-α stimulated EOC-20 cells; experiment: nitrite and PGE2 in TNF-α stimulated EOC-20 microglial cells; format: cell-based; conditions: 20 ng/ml TNF-α-stimulated EOC-20 cells, dose-dependent manner
Description: The compounds of the present invention are effective in treating neurodegenerative diseases, such as amyotrophic lateral sclerosis (ALS), Alzheimer's disease (AD), Huntington's disease (HD) and Parkinson's disease (PD).
The experiments consisted of treating TNF-α stimulated EOC-20 cells with increasing concentrations of β-methyl-6-chloromelatonin followed by measuring neuroinflammation-associated markers. Neuroinflammation activates microglia to produce proinflammatory cytokines, reactive oxygen species (ROS) and reactive nitrogen species (RNS) in ALS, AD, HD and PD-associated pathophysiology (Deckel, 2001; Cacquevel, 2004; McGeer and McGeer, 2004; Sargsyanet al., 2005). Increase in prostaglandin (PGE2), a potent inflammatory mediator, and nitrite, an indirect measure of RNS production, indicates inflammation-induced neurodegeneration in ALS, AD, HD and PD patients (Milstien et al., 1994; Tohgi et al., 1999; Deckel, 2001 ;Cacquevel, 2004).

IHI mice = experiment: ischemia-hypoxia injury (IHI) model of cerebrovascular disease; format: in vivo; conditions: 10 and 100 mg/kg intraperitoneally 30 minutes before and 30 minutes after hypoxia, Day 3, dose-dependent, FIG. 6
Experimental: Subjects were 8-12 week old adult male C57B116 mice housed in a temperature- and humidity-controlled vivarium on a 12:12 hr light:dark cycle with food and water available ad libitum. The mice were subjected to ischemia-hypoxia injury (IHI). The injury was rendered by permanently occluding the right common carotid artery and delivering hypoxic gas (7.5% O2) for 30 minutes employing a gas mask under anesthesia. The animal's body temperature was maintained at 36.5-37.5° C. throughout the experiment. For drug efficacy studies, β-methyl-6-chloro-melatonin was administered intraperitoneally 30 minutes before and 30 minutes after hypoxia at doses of 0 (vehicle only), 10 and 100 mg/kg. On Day 3 after injury, quantitative morphometric image analysis was employed to assess infarction size in Nissl-stained brain sections isolated from the animals. β-methyl-6-chloromelatonin administration caused a 33-40% reduction in brain infarct size in IHI mice compared to vehicle-treated IHI mice (FIG. 6). The protection conferred by β-methyl-6-chloromelatonin was dose-dependent.

male Sprague-Dawley rats = experiment: open field test; format: in vivo; conditions: for rearing behavior compared to vehicle controls: FIG. 1; for immobility compared to controls: FIG. 2
Experimental: Subjects were male Sprague-Dawley rats weighing 250-300 g housed in a temperature- and humidity-controlled vivarium on a 12:12 hr light:dark cycle with food and water available ad libitum. Behavioral testing occurred 2 hrs after lights out. […] All treatments were administered to an animal once (no repeat drug administration) with 8 animals per treatment. The open filed testing procedure has been previously described (Herman et al., 2003). Briefly, the open field apparatus is a 36×36-inch white PLEXIGLAS® enclosure, divided into 36 squares of equal size. Animals are placed into the apparatus and allowed to explore the environment for 5 min. Sessions are videotaped and scored for behavior by an investigator blinded to the treatment condition. Behavior is scored for the two primary outcome measures: rearing and immobility, as well as grooming; and secondary measures of sedation: total mobility and quadrant crossing.

[5] = 10 mg/kg i.p. 1 hr prior to open field testing
[6] = 100 mg/kg i.p. 1 hr prior to open field testing
[7] = 10 and 100 mg/kg i.p., P values>0.10

| SMILES | body weight [1] | body weight (middle-aged male rats; daily treatment, middle-aged obesity, Rasmussen et al., 1999) | fat content (middle-aged male rats; middle-age obesity, as opposed to lean body mass) | core symptoms of fibromyalgia (severity of pain, tender point count, patient and physician ratings) ([2]; 20 patients treated for 30 days, Citera et al., 2000) | patient-reported improvement including lack of pain and fatigue ([2]; daily treatment, end of treatment, Acuna-Castroviejo et al., 2006) | headache frequency [3] | headache intensity [3] | binding to melatonin receptors (melatonin receptors) | side effects compared to placebo treatment (humans) | reduction in damaged cortical tissue compared to vehicle-treated TBI rats (TBI rats) [%] | nitrite production ([4]; P<0.01, FIG. 4) | increase in PGE2 levels ([4]; P<0.01, FIG. 5) | reduction in brain infarct size compared to vehicle-treated IHI mice (IHI mice) | rearing behavior compared to vehicle controls (male Sprague-Dawley rats; [5]) | immobility compared to controls (male Sprague-Dawley rats; [5]) | rearing behavior compared to vehicle controls (male Sprague-Dawley rats; [6]) | immobility compared to controls (male Sprague-Dawley rats; [6]) | sedative effect: quadrant crossings (male Sprague-Dawley rats; [7]) | sedative effect: total mobility (male Sprague-Dawley rats; [7]) |
| --- | --- | --- | --- | --- | --- | --- | --- | --- | --- | --- | --- | --- | --- | --- | --- | --- | --- | --- | --- |
| COc1ccc2[nH]cc(CCNC(C)=O)c2c1 [melatonin] | significantly decreased | significantly decreased | significant decrease | Significant improvement | significant improvement | significant decrease | decrease |  |  |  |  |  |  |  |  |  |  |  |  |
| COc1cc2c([C@@H](C)CNC(C)=O)c[nH]c2cc1Cl [β-methyl-6-chloromelatonin, (R)-N-[2-(6-chloro-5-methoxy-1H-indol-3-yl)propyl]acetamide] |  |  |  |  |  |  |  | high affinity | no significant side effects | 68 | blocked | blocked | 33-40% | significantly increased | significantly decreased | significantly increased | significantly decreased | no significant drug effect | no significant drug effect |
